From US20250221988A1 (Cullgen (Shanghai), Inc., priority 2022, published 2025)
Where two headings read alike, the source gives them in different places.

What was measured:
Format in all cases: cell-based
[1] = tested on: NCI-H1155 cells; assay: Cell viability assay in NCI-H1155 cells; conditions: Homo sapiens, read-out: NCI-H115 IC50
Protocol: (§1) Cell Culture: RS4;11, MV4;11, MOLM-13 and other cells were cultured at 37° C. with 5% CO2 in RPMI 1640 or DMEM Medium supplemented with 10% fetal bovine serum. Cells were authenticated using the short tandem repeat (STR) assays. Mycoplasma test results were negative.
(§2) Cell viability assays: Cells were seeded at a density of 5000 cells per well in 96-well assay plates and treated with test compounds following a 8-point or 12-point 3-fold serial dilution. Three days later, cell viability was determined using the CellTiter-Glo assay kit according to the manufacturer's instructions. The dose-response curves were determined and IC50 values were calculated using the GraphPad Prism software following a nonlinear regression (least squares fit) method.
(§3) The compounds were tested in HEL, 22RV1, NCI-H82 or NCI-H1155 cells.

[2] = tested on: MV4;11 cells; assay: Cell viability assay (CellTiter-Glo) in MV4;11 cells; conditions: read-out: MV4
Summary of the method: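 After three days' exposure to 3-fold serial compound dilutions (8 or 12 points), viability of cells seeded at 5000/well is read by CellTiter-Glo. Runs were done alone or combined with gilteritinib at 10 nM (MV4;11) or 20 nM (MOLM-13); IC50 from nonlinear regression.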

[3] = tested on: MOLM-13 cells; assay: Cell viability assay (CellTiter-Glo) in MOLM-13 cells
[4] = molecular target: GSPT1 (Homo sapiens, UniProt P15170+Q96SW2); assay: Immunoblotting of GSPT1 in MOLM-13 cells; set-up: endogenous in cells; host or cells: MOLM-13; conditions: indicated concentrations, 16 hours
Protocol: as §1
Antibodies and reagents: Rabbit anti-FLT3 antibody (3462S) was purchased from Cell Signaling Technology. Rabbit anti-GSPT1 antibody (ab126090) was purchased from Abeam. HRP-conjugated anti-α-tubulin antibody was produced in house. Media and other cell culture reagents were purchased from Thermo Fisher. The CellTiter-Glo Luminescent Assay kit was purchased from Promega.
Immunoblotting: Cultured cells were washed with cold PBS once and lysed in cold RIPA buffer supplemented with protease inhibitors and phosphatase inhibitors (Beyotime Biotechnology). The solutions were then incubated at 4° C. for 30 minutes with gentle agitation to fully lyse cells. Cell lysates were centrifuged at 13,000 rpm for 10 minutes at 4° C. and pellets were discarded. Total protein concentrations in the lysates were determined by BCA assays (Beyotime Biotechnology). Cell lysates were mixed with Laemmli loading buffer to 1× and heated at 99° C. for 5 min. Proteins were resolved on SDS-PAGE and visualized by chemiluminescence. Images were taken by a ChemiDoc MP Imaging system (Bio-Rad). Protein bands were quantitated using the accompanied software provided by Bio-Rad.

[5] = tested on: HEL cells; assay: Cell viability assay in HEL cells; conditions: Homo sapiens
Protocol: as §1, §2, §3

[6] = tested on: 22RV1 cells; assay: Cell viability assay in 22RV1 cells; conditions: Homo sapiens
Protocol: as §1, §2, §3

[7] = tested on: NCI-H82 cells; assay: Cell viability assay in NCI-H82 cells; conditions: Homo sapiens
Protocol: as §1, §2, §3

[8] = Homo sapiens, MV4-11, 72 h, MV4;11 cells, compound alone, three days, 11 IC50
[9] = MV4;11 cells, with 10 nM gilteritinib, three days, 11 IC50 (nM) + 10 nM Gil
[10] = Homo sapiens, 72 h, MOLM-13 cells, compound alone, three days, read-out: MOLM-13 IC50
[11] = MOLM-13 cells, with gilteritinib, three days, read-out: MOLM-13 IC50 (nM) + 10 nM Gil

Chain of GSPT1 (P15170 whole entry): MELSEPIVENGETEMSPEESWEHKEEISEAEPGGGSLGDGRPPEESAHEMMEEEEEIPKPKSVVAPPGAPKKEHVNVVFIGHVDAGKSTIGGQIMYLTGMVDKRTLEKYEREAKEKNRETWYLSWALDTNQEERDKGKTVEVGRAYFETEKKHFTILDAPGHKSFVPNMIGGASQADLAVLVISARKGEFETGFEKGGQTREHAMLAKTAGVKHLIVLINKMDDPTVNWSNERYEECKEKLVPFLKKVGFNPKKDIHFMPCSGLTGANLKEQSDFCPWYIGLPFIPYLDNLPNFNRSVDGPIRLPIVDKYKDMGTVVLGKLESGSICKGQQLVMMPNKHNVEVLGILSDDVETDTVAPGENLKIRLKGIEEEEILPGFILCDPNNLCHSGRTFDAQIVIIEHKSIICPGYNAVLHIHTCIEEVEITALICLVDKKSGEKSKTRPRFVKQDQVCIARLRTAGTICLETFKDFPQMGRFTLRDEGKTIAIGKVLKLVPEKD
Chain of GSPT1 (Q96SW2 whole entry): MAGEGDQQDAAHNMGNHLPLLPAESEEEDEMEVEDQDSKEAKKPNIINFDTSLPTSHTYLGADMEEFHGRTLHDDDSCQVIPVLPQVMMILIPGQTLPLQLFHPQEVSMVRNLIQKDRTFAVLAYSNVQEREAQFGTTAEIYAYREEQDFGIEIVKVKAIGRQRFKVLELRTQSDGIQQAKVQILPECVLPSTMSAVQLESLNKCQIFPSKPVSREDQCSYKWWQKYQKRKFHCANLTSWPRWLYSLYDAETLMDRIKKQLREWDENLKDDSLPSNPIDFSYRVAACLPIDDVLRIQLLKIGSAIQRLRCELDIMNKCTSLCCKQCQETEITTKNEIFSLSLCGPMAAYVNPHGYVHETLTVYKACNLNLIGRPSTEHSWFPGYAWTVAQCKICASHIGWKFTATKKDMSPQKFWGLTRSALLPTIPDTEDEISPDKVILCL
Chain of GSPT1 (Q16531 whole entry partner): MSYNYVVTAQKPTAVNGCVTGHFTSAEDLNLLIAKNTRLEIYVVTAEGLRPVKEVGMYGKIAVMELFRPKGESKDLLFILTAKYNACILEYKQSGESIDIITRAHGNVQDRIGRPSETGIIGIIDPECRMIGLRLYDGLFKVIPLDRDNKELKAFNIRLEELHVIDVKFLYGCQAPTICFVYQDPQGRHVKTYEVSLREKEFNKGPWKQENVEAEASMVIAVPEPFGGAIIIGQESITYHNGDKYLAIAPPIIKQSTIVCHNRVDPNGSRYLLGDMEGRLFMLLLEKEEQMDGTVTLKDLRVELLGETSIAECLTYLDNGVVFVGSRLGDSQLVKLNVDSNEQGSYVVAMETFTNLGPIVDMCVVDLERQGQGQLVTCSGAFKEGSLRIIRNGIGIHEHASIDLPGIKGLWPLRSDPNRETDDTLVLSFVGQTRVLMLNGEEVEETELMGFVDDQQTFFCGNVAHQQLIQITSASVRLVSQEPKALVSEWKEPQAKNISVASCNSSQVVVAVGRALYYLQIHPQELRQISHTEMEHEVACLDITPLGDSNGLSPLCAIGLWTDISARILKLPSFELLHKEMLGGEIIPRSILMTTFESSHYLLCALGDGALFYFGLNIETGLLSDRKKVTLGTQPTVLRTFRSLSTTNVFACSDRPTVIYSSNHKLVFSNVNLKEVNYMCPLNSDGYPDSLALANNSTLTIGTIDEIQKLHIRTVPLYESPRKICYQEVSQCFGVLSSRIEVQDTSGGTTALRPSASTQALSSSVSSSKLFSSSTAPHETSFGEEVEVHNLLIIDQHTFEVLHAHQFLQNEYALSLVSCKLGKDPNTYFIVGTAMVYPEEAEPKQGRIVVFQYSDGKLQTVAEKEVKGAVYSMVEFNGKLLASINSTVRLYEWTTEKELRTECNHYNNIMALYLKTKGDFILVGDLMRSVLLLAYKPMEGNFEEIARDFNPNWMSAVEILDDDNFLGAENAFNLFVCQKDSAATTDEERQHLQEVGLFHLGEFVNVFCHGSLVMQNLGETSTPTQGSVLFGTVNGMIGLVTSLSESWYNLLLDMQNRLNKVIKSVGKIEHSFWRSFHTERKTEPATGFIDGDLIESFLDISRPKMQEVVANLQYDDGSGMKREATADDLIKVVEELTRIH

IC50 [1] [nM]	Compound	IC50 [2, 8] [nM]	IC50 [2, 9] [nM]	IC50 [3, 10] [nM]	IC50 [3, 11] [nM]	small molecule-mediated targeted degradation of GSPT1 [4]	also measured
10 to 100	CNc1cccc(-c2cn([C@H]3C[C@H](CNc4ccc5c(c4)CN(C4CCC(=O)NC4=O)C5=O)C3)nc2C2CC2)n1 (relative stereo) [GS-811, 3-(5-(((Trans-3-(3-cyclopropyl-4-(6-(methylamino)pyridin-2-yl)-1H-pyrazol-1-yl)cyclobutyl)methyl)amino)-1-oxoisoindolin-2-yl)piperidine-2,6-dione]						
	O=C1CCC(N2C(=O)c3ccc(NC[C@H]4C[C@H](n5cc(-c6ncc(F)c7cccnc67)c(C6CC6)n5)C4)cc3C2=O)C(=O)N1 (stereo partly drawn) [GS-697, 5-(((Trans-3-(3-cyclopropyl-4-(5-fluoro-1,7-naphthyridin-8-yl)-1H-pyrazol-1-yl)cyclobutyl)methyl)amino)-2-(2,6-dioxopiperidin-3-yl)isoindoline-1,3-dione]	< 10	< 10	< 10	< 10	targeted degradation of GSPT1	
	Cn1ncc2ccc(-c3cn([C@H]4C[C@H](CNc5ccc6c(c5)C(=O)N(C5CCC(=O)NC5=O)C6=O)C4)nc3C3CC3)nc21 (stereo partly drawn) [GS-729, 5-(((Trans-3-(3-cyclopropyl-4-(1-methyl-1H-pyrazolo[3,4-b]pyridin-6-yl)-1H-pyrazol-1-yl)cyclobutyl)methyl)amino)-2-(2,6-dioxopiperidin-3-yl)isoindoline-1,3-dione]	10 to 100	< 10	10 to 100	< 10	targeted degradation of GSPT1	
	Cc1nc(-c2cn([C@H]3C[C@H](CNc4ccc5c(c4)CN(C4CCC(=O)NC4=O)C5=O)C3)nc2C2CC2)ccc1F (stereo partly drawn) [GS-731, 3-(5-(((Trans-3-(3-cyclopropyl-4-(5-fluoro-6-methylpyridin-2-yl)-1H-pyrazol-1-yl)cyclobutyl)methyl)amino)-1-oxoisoindolin-2-yl)piperidine-2,6-dione]	< 10	< 10	10 to 100	< 10	targeted degradation of GSPT1	
	O=C1CCC(N2Cc3cc(NC[C@H]4C[C@H](n5cc(-c6ncc(F)c7cccnc67)c(C6CC6)n5)C4)ccc3C2=O)C(=O)N1 (stereo partly drawn) [GS-788, 3-(5-(((Trans-3-(3-cyclopropyl-4-(5-fluoro-1,7-naphthyridin-8-yl)-1H-pyrazol-1-yl)cyclobutyl)methyl)amino)-1-oxoisoindolin-2-yl)piperidine-2,6-dione]	< 10	< 10	< 10	< 10	targeted degradation of GSPT1	
	O=C1CCC(N2C(=O)c3ccc(NC[C@H]4C[C@H](n5cc(-c6cc7nn([C@H]8CC[C@H](O)CC8)cc7cn6)c(C6CC6)n5)C4)cc3C2=O)C(=O)N1 (stereo partly drawn) [GS-789, 5-(((Trans-3-(3-cyclopropyl-4-(2-(trans-4-hydroxycyclohexyl)-2H-pyrazolo[4,3-c]pyridin-6-yl)-1H-pyrazol-1-yl)cyclobutyl)methyl)amino)-2-(2,6-dioxopiperidin-3-yl)isoindoline-1,3-dione]	< 10	< 10	< 10	< 10		
	Cn1cc2c(-c3cn([C@H]4C[C@H](CNc5ccc6c(c5)C(=O)N(C5CCC(=O)NC5=O)C6=O)C4)nc3C3CC3)ncc(F)c2n1 (stereo partly drawn) [GS-790, 5-(((Trans-3-(3-cyclopropyl-4-(7-fluoro-2-methyl-2H-pyrazolo[4,3-c]pyridin-4-yl)-1H-pyrazol-1-yl)cyclobutyl)methyl)amino)-2-(2,6-dioxopiperidin-3-yl)isoindoline-1,3-dione]	< 10	< 10	10 to 100	< 10		
	CC(C)n1ncc2c(-c3cn([C@H]4C[C@H](CNc5ccc6c(c5)C(=O)N(C5CCC(=O)NC5=O)C6=O)C4)nc3C3CC3)ncc(F)c21 (stereo partly drawn) [GS-791, 5-(((Trans-3-(3-Cyclopropyl-4-(7-fluoro-1-isopropyl-1H-pyrazolo[4,3-c]pyridin-4-yl)-1H-pyrazol-1-yl)cyclobutyl)methyl)amino)-2-(2,6-dioxopiperidin-3-yl)isoindoline-1,3-dione]						IC50 ([2]; Homo sapiens, MV4-11, 72 h, 11 IC50 (nM)): < 10 nM; IC50 ([2]; 11 IC50 (nM) + 10 nM Gil, MV4;11 cells, with 10 nM gilteritinib, three days): < 10 nM; IC50 ([3]; Homo sapiens, MOLM-13, 72 h, read-out: MOLM-13 IC50 (nM)): 10 to 100 nM; IC50 ([3]; read-out: MOLM-13 IC50 (nM) + 10 nM Gil, MOLM-13 cells, with gilteritinib, three days): 10 to 100 nM
	Cc1ccc(Cl)c(-c2cn([C@H]3C[C@H](CNc4ccc5c(c4)CN(C4CCC(=O)NC4=O)C5=O)C3)nc2C2CC2)n1 (stereo partly drawn) [GS-805, 3-(5-(((Trans-3-(4-(3-chloro-6-methylpyridin-2-yl)-3-cyclopropyl-1H-pyrazol-1-yl)cyclobutyl)methyl)amino)-1-oxoisoindolin-2-yl)piperidine-2,6-dione]						IC50 [5]: < 10 nM
	Cc1ccc(F)c(-c2cn([C@H]3C[C@H](CNc4ccc5c(c4)CN(C4CCC(=O)NC4=O)C5=O)C3)nc2C2CC2)n1 (stereo partly drawn) [GS-807, 3-(5-(((Trans-3-(3-cyclopropyl-4-(3-fluoro-6-methylpyridin-2-yl)-1H-pyrazol-1-yl)cyclobutyl)methyl)amino)-1-oxoisoindolin-2-yl)piperidine-2,6-dione]						IC50 [5]: < 10 nM; IC50 [6]: < 10 nM; IC50 [7]: < 10 nM
	CNc1nc(-c2cn([C@H]3C[C@H](CNc4ccc5c(c4)CN(C4CCC(=O)NC4=O)C5=O)C3)nc2C2CC2)ccc1F (stereo partly drawn) [GS-808, 3-(5-(((Trans-3-(3-cyclopropyl-4-(5-fluoro-6-(methylamino)pyridin-2-yl)-1H-pyrazol-1-yl)cyclobutyl)methyl)amino)-1-oxoisoindolin-2-yl)piperidine-2,6-dione]						IC50 [7]: < 10 nM
< 10	Cc1nc(-c2cn([C@H]3C[C@H](CNc4ccc5c(c4)CN(C4CCC(=O)NC4=O)C5=O)C3)nc2C2CC2)c(F)cc1F (stereo partly drawn) [GS-809, 3-(5-(((trans-3-(3-cyclopropyl-4-(3,5-difluoro-6-methylpyridin-2-yl)-1H-pyrazol-1-yl)cyclobutyl)methyl)amino)-1-oxoisoindolin-2-yl)piperidine-2,6-dione]						
10 to 100	Nc1cccc(-c2cn([C@H]3C[C@H](CNc4ccc5c(c4)CN(C4CCC(=O)NC4=O)C5=O)C3)nc2C2CC2)n1 (stereo partly drawn) [GS-810, 3-(5-(((Trans-3-(4-(6-aminopyridin-2-yl)-3-cyclopropyl-1H-pyrazol-1-yl)cyclobutyl)methyl)amino)-1-oxoisoindolin-2-yl)piperidine-2,6-dione]						
	Cc1nc(-c2cn([C@H]3C[C@H](CNc4ccc5c(c4)CN(C4CCC(=O)NC4=O)C5=O)C3)nc2C2CC2)c(Cl)cc1F (some centres unmarked) [GS-812]						IC50 [7]: < 10 nM

Compound	IC50 [1] [nM]	IC50 [2, 8] [nM]	IC50 [2, 9] [nM]	IC50 [3, 10] [nM]	IC50 [3, 11] [nM]	small molecule-mediated targeted degradation of GSPT1 [4]	also measured
O=C1CCC(N2Cc3cc(NC[C@H]4C[C@H](n5cc(-c6ccc(F)c(C(F)F)n6)c(C6CC6)n5)C4)ccc3C2=O)C(=O)N1 (stereo partly drawn) [GS-802, 3-(5-(((Trans-3-(3-cyclopropyl-4-(6-(difluoromethyl)-5-fluoropyridin-2-yl)-1H-pyrazol-1-yl)cyclobutyl)methyl)amino)-1-oxoisoindolin-2-yl)piperidine-2,6-dione]	10 to 100			10 to 100		targeted degradation of GSPT1	
O=C1CCC(N2Cc3cc(NC[C@H]4C[C@H](n5cc(-c6ccc(F)c(C(F)(F)F)n6)c(C6CC6)n5)C4)ccc3C2=O)C(=O)N1 (stereo partly drawn) [GS-803, 3-(5-(((Trans-3-(3-cyclopropyl-4-(5-fluoro-6-(trifluoromethyl)pyridin-2-yl)-1H-pyrazol-1-yl)cyclobutyl)methyl)amino)-1-oxoisoindolin-2-yl)piperidine-2,6-dione]	< 10			< 10		targeted degradation of GSPT1	
